# According to ChEMBL document CHEMBL4507262, “Data for DCP probe A-1596586” (2021):
# Key:
# [1] = target: Cystic fibrosis transmembrane conductance regulator (Homo sapiens, UniProt P13569); assay: CSE-HRP cell viability (Cell surface expression-horseradish peroxidase) assay
# [2] = target: Motilin receptor (Homo sapiens) (UniProt O43193); assay: motilin (h Eurofins-Cerep binding assay; parameters: ligand concentration 0.05 nM; details: filed as agonist, Compound concentration 10.0 uM
# [3] = target: Neuropeptide Y receptor type 1 (Homo sapiens) (UniProt P25929); assay: Y1 (h) Eurofins-Cerep binding assay; parameters: ligand concentration 0.025 nM; details: filed as agonist, Compound concentration 10.0 uM
# [4] = target: Androgen receptor (Homo sapiens) (UniProt P10275); assay: AR (h) Eurofins-Cerep binding assay; parameters: ligand concentration 1 nM; details: filed as agonist, Compound concentration 10.0 uM
# [5] = system: Tyrosine-protein kinase ABL1 (Homo sapiens), P00519 [F317I]; details: Compound concentration 1000.0 nM
# [6] = target: Tyrosine-protein kinase ABL1 (Homo sapiens) (UniProt P00519); details: Compound concentration 1000.0 nM
# [7] = target: Activin receptor type-1B (Homo sapiens) (UniProt P36896); details: Compound concentration 1000.0 nM
# [8] = target: Atypical kinase COQ8A, mitochondrial (Homo sapiens) (UniProt Q8NI60); details: Compound concentration 1000.0 nM
# [9] = target: RAC-beta serine/threonine-protein kinase (Homo sapiens) (UniProt P31751); details: Compound concentration 1000.0 nM
# [10] = target: BMP-2-inducible protein kinase (Homo sapiens) (UniProt Q9NSY1); details: Compound concentration 1000.0 nM
# [11] = system: Serine/threonine-protein kinase B-raf (Homo sapiens), P15056 [V600E]; details: Compound concentration 1000.0 nM
# [12] = target: Calcium/calmodulin-dependent protein kinase kinase 1 (Homo sapiens) (UniProt Q8N5S9); details: Compound concentration 1000.0 nM
# [13] = target: Cyclin-dependent kinase 3 (Homo sapiens) (UniProt Q00526); details: Compound concentration 1000.0 nM
# [14] = target: Cyclin-dependent kinase 4 (Homo sapiens) (UniProt P11802); details: Compound concentration 1000.0 nM
# [15] = target: Dual specificity protein kinase CLK3 (Homo sapiens) (UniProt P49761); details: Compound concentration 1000.0 nM
# [16] = target: Casein kinase I isoform gamma-2 (Homo sapiens) (UniProt P78368); details: Compound concentration 1000.0 nM
# [17] = target: Epithelial discoidin domain-containing receptor 1 (Homo sapiens) (UniProt Q08345); details: Compound concentration 1000.0 nM
# [18] = target: Epidermal growth factor receptor (Homo sapiens) (UniProt P00533); details: Compound concentration 1000.0 nM
# [19] = system: Epidermal growth factor receptor (Homo sapiens), P00533 [UNDEFINED MUTATION]; details: Compound concentration 1000.0 nM
# [20] = system: Epidermal growth factor receptor (Homo sapiens), P00533 [L858R,T790M]; details: Compound concentration 1000.0 nM
# [21] = target: Ephrin type-A receptor 4 (Homo sapiens) (UniProt P54764); details: Compound concentration 1000.0 nM
# [22] = target: Fibroblast growth factor receptor 1 (Homo sapiens) (UniProt P11362); details: Compound concentration 1000.0 nM
# [23] = target: Inhibitor of nuclear factor kappa-B kinase subunit beta (Homo sapiens) (UniProt O14920); details: Compound concentration 1000.0 nM
# [24] = target: Tyrosine-protein kinase JAK1 (Homo sapiens) (UniProt P23458); details: Compound concentration 1000.0 nM
# [25] = system: Mast/stem cell growth factor receptor Kit (Homo sapiens), P10721 [L576P]; details: Compound concentration 1000.0 nM
# [26] = target: Serine/threonine-protein kinase LATS1 (Homo sapiens) (UniProt O95835); details: Compound concentration 1000.0 nM
# [27] = target: Misshapen-like kinase 1 (Homo sapiens) (UniProt Q8N4C8); details: Compound concentration 1000.0 nM
# [28] = target: MAP kinase-interacting serine/threonine-protein kinase 1 (Homo sapiens) (UniProt Q9BUB5); details: Compound concentration 1000.0 nM
# [29] = target: Serine/threonine-protein kinase Nek10 (Homo sapiens) (UniProt Q6ZWH5); details: Compound concentration 1000.0 nM
# [30] = target: Serine/threonine-protein kinase Nek4 (Homo sapiens) (UniProt P51957); details: Compound concentration 1000.0 nM
# [31] = system: Phosphatidylinositol 4,5-bisphosphate 3-kinase catalytic subunit alpha isoform (Homo sapiens), P42336 [H1047Y]; details: Compound concentration 1000.0 nM
# [32] = target: Proto-oncogene tyrosine-protein kinase receptor Ret (Homo sapiens) (UniProt P07949); details: Compound concentration 1000.0 nM
# [33] = target: Ribosomal protein S6 kinase alpha-5 (Homo sapiens) (UniProt O75582); details: Compound concentration 1000.0 nM
# [34] = target: Serine/threonine-protein kinase 33 (Homo sapiens) (UniProt Q9BYT3); details: Compound concentration 1000.0 nM
# [35] = target: Serine/threonine-protein kinase WNK1 (Homo sapiens) (UniProt Q9H4A3); details: Compound concentration 1000.0 nM
# [36] = target: Serine/threonine-protein kinase WNK2 (Homo sapiens) (UniProt Q9Y3S1); details: Compound concentration 1000.0 nM
# [37] = target: Mitogen-activated protein kinase kinase kinase 20 (Homo sapiens) (UniProt Q9NYL2); details: Compound concentration 1000.0 nM
# [38] = target: 5-hydroxytryptamine receptor 1B (Homo sapiens) (UniProt P28222); details: Compound concentration 10.0 uM
# [39] = target: 5-hydroxytryptamine receptor 2B (Homo sapiens) (UniProt P41595); details: Compound concentration 10.0 uM
# [40] = target: Beta-3 adrenergic receptor (Homo sapiens) (UniProt P13945); details: Compound concentration 10.0 uM
# [41] = target: Sigma non-opioid intracellular receptor 1 (Homo sapiens, UniProt Q99720); details: Compound concentration 10.0 uM
# Chain of Sigma non-opioid intracellular receptor 1 (Q99720 whole entry): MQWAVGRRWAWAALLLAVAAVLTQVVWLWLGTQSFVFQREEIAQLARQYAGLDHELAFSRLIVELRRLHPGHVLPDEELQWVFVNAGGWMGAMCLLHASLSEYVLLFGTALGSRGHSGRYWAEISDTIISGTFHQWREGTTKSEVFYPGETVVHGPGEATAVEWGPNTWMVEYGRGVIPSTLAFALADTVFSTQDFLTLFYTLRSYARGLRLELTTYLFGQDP
# Chain of Misshapen-like kinase 1 (Homo sapiens) (Q8N4C8 whole entry, looked up): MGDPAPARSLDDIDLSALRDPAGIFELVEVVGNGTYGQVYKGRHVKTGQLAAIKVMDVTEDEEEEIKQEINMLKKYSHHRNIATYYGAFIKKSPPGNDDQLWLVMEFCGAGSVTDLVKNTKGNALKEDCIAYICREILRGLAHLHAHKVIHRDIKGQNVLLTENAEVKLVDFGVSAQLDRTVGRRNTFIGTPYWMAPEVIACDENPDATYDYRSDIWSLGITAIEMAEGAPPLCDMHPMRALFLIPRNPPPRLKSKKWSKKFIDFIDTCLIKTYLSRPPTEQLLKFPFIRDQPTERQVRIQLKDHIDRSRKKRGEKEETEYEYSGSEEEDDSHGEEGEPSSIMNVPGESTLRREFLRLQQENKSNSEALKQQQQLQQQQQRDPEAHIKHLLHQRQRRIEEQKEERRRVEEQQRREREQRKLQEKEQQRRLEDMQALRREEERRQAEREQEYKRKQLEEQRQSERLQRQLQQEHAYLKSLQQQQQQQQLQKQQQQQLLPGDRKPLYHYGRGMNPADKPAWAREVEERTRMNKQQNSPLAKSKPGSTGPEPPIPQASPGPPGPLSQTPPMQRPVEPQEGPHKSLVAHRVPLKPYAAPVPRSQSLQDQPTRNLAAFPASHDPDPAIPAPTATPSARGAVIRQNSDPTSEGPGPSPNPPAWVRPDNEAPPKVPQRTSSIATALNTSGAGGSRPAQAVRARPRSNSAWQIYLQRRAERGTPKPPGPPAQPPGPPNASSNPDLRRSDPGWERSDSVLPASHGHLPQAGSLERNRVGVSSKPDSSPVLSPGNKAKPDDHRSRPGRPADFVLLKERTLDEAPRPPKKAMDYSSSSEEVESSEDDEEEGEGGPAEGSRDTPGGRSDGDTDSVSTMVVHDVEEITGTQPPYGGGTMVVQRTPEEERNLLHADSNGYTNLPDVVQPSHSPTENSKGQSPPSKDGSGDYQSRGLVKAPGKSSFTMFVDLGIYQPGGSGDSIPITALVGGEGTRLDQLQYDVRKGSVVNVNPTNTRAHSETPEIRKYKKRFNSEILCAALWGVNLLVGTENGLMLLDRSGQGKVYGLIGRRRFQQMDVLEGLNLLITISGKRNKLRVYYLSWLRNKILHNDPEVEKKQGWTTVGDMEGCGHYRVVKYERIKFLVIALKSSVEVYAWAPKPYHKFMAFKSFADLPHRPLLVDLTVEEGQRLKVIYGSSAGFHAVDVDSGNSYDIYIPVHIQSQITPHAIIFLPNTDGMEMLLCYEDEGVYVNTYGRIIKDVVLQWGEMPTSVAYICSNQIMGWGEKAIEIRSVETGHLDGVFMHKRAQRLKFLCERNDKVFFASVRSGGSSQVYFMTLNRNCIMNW
# Chain of Activin receptor type-1B (Homo sapiens) (P36896 whole entry): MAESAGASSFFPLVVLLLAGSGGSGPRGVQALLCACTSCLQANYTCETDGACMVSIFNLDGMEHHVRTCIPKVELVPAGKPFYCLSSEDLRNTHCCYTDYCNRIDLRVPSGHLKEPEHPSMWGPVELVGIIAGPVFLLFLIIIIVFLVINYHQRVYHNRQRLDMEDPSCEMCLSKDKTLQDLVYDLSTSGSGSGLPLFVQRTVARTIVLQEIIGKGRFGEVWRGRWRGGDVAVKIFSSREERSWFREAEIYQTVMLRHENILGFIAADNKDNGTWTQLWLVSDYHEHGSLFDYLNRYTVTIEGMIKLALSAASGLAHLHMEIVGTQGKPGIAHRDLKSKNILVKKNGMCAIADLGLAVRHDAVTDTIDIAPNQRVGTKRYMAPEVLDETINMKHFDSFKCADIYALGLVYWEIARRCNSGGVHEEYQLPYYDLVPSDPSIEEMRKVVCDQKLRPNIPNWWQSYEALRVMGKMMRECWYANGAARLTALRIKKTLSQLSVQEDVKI
# Chain of Serine/threonine-protein kinase Nek4 (Homo sapiens) (P51957 whole entry, looked up, canonical isoform): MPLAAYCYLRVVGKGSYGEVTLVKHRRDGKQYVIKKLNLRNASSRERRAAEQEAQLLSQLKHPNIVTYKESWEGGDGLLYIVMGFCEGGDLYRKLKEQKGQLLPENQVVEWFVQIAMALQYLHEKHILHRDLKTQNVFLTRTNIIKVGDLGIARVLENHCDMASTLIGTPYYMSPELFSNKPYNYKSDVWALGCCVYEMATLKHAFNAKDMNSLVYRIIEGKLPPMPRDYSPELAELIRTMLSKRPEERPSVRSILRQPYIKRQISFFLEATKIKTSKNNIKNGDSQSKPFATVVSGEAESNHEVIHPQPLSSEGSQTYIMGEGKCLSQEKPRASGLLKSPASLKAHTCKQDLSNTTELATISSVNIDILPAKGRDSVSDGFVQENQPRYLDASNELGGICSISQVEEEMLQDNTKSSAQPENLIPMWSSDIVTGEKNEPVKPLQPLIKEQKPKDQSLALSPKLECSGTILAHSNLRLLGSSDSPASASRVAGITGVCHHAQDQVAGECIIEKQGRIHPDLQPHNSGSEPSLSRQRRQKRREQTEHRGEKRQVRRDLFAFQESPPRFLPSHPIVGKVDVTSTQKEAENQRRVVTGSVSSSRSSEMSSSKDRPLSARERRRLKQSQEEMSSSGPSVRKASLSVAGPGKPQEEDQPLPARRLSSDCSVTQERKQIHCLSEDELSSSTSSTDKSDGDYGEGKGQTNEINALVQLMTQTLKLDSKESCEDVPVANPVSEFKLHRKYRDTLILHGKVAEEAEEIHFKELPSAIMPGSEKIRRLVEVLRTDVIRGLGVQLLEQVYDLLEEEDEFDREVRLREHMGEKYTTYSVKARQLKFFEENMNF
# Chain of Ribosomal protein S6 kinase alpha-5 (Homo sapiens) (O75582 whole entry, looked up): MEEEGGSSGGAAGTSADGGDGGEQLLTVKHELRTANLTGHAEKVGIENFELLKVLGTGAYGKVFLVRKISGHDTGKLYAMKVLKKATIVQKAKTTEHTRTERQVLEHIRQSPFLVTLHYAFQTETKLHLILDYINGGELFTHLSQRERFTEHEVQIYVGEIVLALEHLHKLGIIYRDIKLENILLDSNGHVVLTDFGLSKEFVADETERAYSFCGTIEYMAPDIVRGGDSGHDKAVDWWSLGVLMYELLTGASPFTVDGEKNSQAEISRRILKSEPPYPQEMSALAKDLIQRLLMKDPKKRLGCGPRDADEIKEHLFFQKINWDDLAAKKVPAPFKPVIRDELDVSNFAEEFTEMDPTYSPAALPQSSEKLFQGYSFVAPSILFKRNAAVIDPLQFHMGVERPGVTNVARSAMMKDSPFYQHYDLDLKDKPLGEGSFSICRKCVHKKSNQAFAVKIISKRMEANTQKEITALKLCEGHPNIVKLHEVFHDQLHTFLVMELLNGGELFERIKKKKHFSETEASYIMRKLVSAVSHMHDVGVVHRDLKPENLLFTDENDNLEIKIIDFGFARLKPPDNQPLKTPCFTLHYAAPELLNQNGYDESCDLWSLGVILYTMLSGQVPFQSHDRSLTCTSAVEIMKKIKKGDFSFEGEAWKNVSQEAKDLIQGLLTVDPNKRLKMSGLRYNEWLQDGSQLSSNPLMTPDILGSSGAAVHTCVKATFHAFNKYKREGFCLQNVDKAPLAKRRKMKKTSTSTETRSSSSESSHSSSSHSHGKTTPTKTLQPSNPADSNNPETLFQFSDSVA
# Chain of Dual specificity protein kinase CLK3 (Homo sapiens) (P49761 whole entry, looked up, canonical isoform): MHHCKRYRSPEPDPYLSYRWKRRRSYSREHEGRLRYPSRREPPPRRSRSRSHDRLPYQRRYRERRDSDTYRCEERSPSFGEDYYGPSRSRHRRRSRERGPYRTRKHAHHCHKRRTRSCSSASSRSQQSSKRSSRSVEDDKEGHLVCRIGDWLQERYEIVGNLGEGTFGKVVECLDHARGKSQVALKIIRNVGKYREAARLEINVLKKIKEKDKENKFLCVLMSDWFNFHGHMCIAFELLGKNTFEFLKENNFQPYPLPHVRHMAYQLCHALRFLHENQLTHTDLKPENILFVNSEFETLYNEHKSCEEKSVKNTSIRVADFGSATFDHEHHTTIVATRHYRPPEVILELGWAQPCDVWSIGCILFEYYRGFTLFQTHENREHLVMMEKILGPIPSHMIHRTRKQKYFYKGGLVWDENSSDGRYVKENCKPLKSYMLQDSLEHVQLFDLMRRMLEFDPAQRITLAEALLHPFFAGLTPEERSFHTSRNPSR
# Chain of RAC-beta serine/threonine-protein kinase (Homo sapiens) (P31751 whole entry): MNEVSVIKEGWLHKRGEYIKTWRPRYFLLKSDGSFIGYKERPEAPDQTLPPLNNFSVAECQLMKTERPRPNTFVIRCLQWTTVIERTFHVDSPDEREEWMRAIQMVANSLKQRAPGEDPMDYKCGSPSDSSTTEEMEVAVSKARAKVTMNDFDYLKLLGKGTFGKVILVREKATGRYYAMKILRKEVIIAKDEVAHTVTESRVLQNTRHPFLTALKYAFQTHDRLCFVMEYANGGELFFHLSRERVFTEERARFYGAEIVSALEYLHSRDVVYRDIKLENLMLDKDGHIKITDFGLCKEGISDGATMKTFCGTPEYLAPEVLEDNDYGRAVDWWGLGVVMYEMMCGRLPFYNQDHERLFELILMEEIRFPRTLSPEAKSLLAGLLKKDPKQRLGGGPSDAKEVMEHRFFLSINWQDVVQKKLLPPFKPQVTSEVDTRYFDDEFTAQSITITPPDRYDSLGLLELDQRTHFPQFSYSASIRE
# Chain of Cyclin-dependent kinase 4 (Homo sapiens) (P11802 whole entry): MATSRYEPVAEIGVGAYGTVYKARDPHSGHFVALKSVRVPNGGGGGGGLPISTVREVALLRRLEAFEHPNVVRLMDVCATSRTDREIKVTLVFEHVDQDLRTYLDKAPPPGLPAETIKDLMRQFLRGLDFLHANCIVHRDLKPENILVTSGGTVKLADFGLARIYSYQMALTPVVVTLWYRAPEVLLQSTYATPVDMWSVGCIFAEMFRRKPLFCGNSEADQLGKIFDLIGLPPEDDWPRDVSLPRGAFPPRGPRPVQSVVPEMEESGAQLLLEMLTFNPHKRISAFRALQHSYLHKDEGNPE
smiles,measurement,setting,value
COc1ccc2c(c1)O[C@H](c1ccc(OC)c(OC)c1)C[C@@H]2NC(=O)C1(c2ccc3c(c2)OC(F)(F)O3)CC1 [A-1596584],EC50,[1],> 20 µM (not active)
same,% Inhibition of Control Specific Binding (Mean n=2),[2],26.4%
same,% Inhibition of Control Specific Binding (Mean n=2),[3],-0.4%
same,% Inhibition of Control Specific Binding (Mean n=2),[4],-3.6%
same,residual activity,[5],100%
same,residual activity,[6],93%
same,residual activity,[7],82%
same,residual activity,[8],100%
same,residual activity,[9],96%
same,residual activity,[10],100%
same,residual activity,[11],93%
same,residual activity,[12],100%
same,residual activity,[13],100%
same,residual activity,[14],100%
same,residual activity,[15],100%
same,residual activity,[16],95%
same,residual activity,[17],100%
same,residual activity,[18],92%
same,residual activity,[19],98%
same,residual activity,[20],96%
same,residual activity,[21],91%
same,residual activity,[22],87%
same,residual activity,[23],97%
same,residual activity,[24],100%
same,residual activity,[25],100%
same,residual activity,[26],65%
same,residual activity,[27],100%
same,residual activity,[28],81%
same,residual activity,[29],100%
same,residual activity,[30],86%
same,residual activity,[31],100%
same,residual activity,[32],100%
same,residual activity,[33],91%
same,residual activity,[34],61%
same,residual activity,[35],100%
same,residual activity,[36],85%
same,residual activity,[37],97%
same,inhibition,[38],-1%
same,inhibition,[39],-0.83%
same,inhibition,[40],-7.53%
same,inhibition,[41],53%
COc1ccc2c(c1)O[C@@H](c1ccc(OC)c(OC)c1)C[C@H]2NC(=O)C1(c2ccc3c(c2)OC(F)(F)O3)CC1 [A-1596586],EC50,[1],> 20 µM (not active)
same,% Inhibition of Control Specific Binding (Mean n=2),[2],10.7%
same,% Inhibition of Control Specific Binding (Mean n=2),[3],9.8%
same,% Inhibition of Control Specific Binding (Mean n=2),[4],7.1%
same,residual activity,[5],93%
same,residual activity,[6],80%
same,residual activity,[7],67%
same,residual activity,[8],87%
same,residual activity,[9],100%
same,residual activity,[10],100%
same,residual activity,[11],100%
same,residual activity,[12],89%
same,residual activity,[13],100%
same,residual activity,[14],100%
same,residual activity,[15],100%
same,residual activity,[16],88%
same,residual activity,[17],100%
same,residual activity,[18],96%
same,residual activity,[19],100%
same,residual activity,[20],100%
same,residual activity,[21],100%
same,residual activity,[22],90%
same,residual activity,[23],95%
same,residual activity,[24],100%
same,residual activity,[25],92%
same,residual activity,[26],92%
same,residual activity,[27],77%
same,residual activity,[28],78%
same,residual activity,[29],86%
same,residual activity,[30],75%
same,residual activity,[31],77%
same,residual activity,[32],99%
same,residual activity,[33],100%
same,residual activity,[34],68%
same,residual activity,[35],100%
same,residual activity,[36],84%
same,residual activity,[37],97%
same,inhibition,[38],-0.84%
same,inhibition,[39],1.62%
same,inhibition,[40],3.77%
same,inhibition,[41],82.8%
